Experimental data taken from patent publication US7807777B2, “Marker peptide for alzheimer's disease” (Immuno-Biological Laboratories Co., Ltd., priority 2003, dated 2010).

Tests used:
presenilin [1] = assay: Western blotting of cell lysates of HEK293 cells expressing APP695, Alcα, Alcβ or Alcγ, with or without presenilin inhibitor; assay type: cell-based; conditions: 1 μl of 1 mM DMSO solution per 1 ml culture medium, 24 hrs
Method: A DNA encoding Alcα, Alcβ, Alcγ, or APP695 (an isoform of human APP consisting of 695 amino acids) was inserted into a mammalian expression vector pcDNA3.1 (Invitrogen).
HEK293 cells were seeded in DMEM (D5796: Sigma) containing 10% fetal bovine serum in a 6-well culture plate (area of base: 10 cm^2) and transfected with the expression vector prepared above by using a transfection reagent (LipofectAMINE 2000: Invitrogen). As a control, HEK293 cells were similarly transfected with an empty pcDNA3.1 vector.
One microliter of a DMSO solution containing 1 mM of a presenilin inhibitor L-685,458 (Calbiochem) was added to 1 ml of the culture medium. After the incubation for 24 hrs, a sample of the culture medium was taken. As a control, an equal quantity of DMSO instead of the L-685,458 solution was added to the culture medium and similarly incubated. Then, a sample of the culture medium was taken. The sample of the culture medium was added to 1 ml of HBST buffer (10 mM HEPES of pH 7.4, 150 mM sodium chloride, 0.5% Triton X-100, 5 μg/ml chymostatin, 5 μg/ml leupeptin, and […]) for extracting proteins of the cells. The solubilized cells were centrifuged (12000×g, 10 min) and supernatant was collected to recover the solubilized components. The solubilized components (7.5 μl) were added to 7.5 μl of a sample-buffer mixture (a mixture of 5 μl of 5×SDS sample buffer and 2.5 μl of 8 M urea solution) and boiled for 5 min. This sample was subjected to SDS-PAGE of 8/15% 2-stage gel and then the proteins were transferred on a nitrocellulose membrane for conducting Western blotting. The SDS-PAGE was performed according to the general method of Laemmli. As the primary antibody, an anti-APP cytoplasmic domain antibody (G369, 1/2000 dilution), anti-Alcα antibody (UT83, 0.3 μg/ml), anti-Alcβ antibody (UT99, 0.5 μg/ml), and anti-Alcγ antibody (UT105, 1/500 dilution) were used. The detection was performed by using an ECL kit (Pharmacia). The UT99 and UT105 are antibodies recognizing the C-terminals of Alcβ and Alcγ, respectively. FIG. 6 and FIG. 7A to C show the results.

presenilin [2] = assay: Incubation of membrane fragments of HEK293 cells expressing Alcα, Alcβ or Alcγ, Western blotting with anti-Alc antibodies; assay type: biochemical; conditions: Alcβ and Alcγ, final concentration 1 μM, 37° C. for 1 or 3 hrs, FIG. 8A to C
Method: DNAs encoding Alcα, Alcβ, or Alcγ were each inserted into a mammalian expression vector pcDNA3.1 (Invitrogen).
HEK293 cells were seeded in DMEM containing 10% fetal bovine serum in a 10-cm culture plate (area of base: 60 cm^2) and transfected with the expression vector prepared above by using a transfection reagent (LipofectAMINE 2000: Invitrogen). As a control, HEK293 cells were transfected with an empty pcDNA3.1 vector.
After the incubation for 24 hrs, the culture medium was removed and the cells were washed with ice-cooled PBS. Then, 10 ml of PBS was added again. The cells were detached from the plate by pipetting and transferred into a 15 ml Falcon tube. The cells were collected by centrifugation (1500 rpm, 10 min, low-speed refrigerated centrifuge: Beckmann) as a pellet of the cells. One milliliter of buffer D (0.25 M sucrose, 10 mM triethanolamine-acetate of pH 7.8, 5 μg/ml chymostatin, 5 μg/ml leupeptin, and 5 μg/ml pepstatin) was added to the pellet of the cells, and the cells were broken by 12 passages through a 27 G needle. Then, the broken cells were centrifuged with a TOMY TMA-6 rotor at 3000 rpm (1000×g) for 10 min at 4° C. to remove unbroken cells and nuclei and to obtain a nucleus-removed cell homogenate. […]

For `CC(C)C[C@H](NC(=O)[C@H](Cc1ccccc1)C[C@@H](O)[C@H](Cc1ccccc1)NC(=O)OC(C)(C)C)C(=O)N[C@@H](Cc1ccccc1)C(N)=O` [L-685,458], the “C-terminal fragment (CTFα) of APP in the cell lysate” value (presenilin [1]; HEK293 cells expressing APP695, FIG. 6) was “a large amount of the C-terminal fragment (CTFα) was detected in the cell lysate only when the presenilin inhibitor (L-685,458) was added”, the “C-terminal fragment (CTF1) of Alcα in the cell lysate” value (presenilin [1]; HEK293 cells expressing Alcα, FIG. 7A) was “C-terminal fragments (CTF1) were detected only when the presenilin inhibitor was added” and the “C-terminal fragment of Alcβ in the cell lysate” value (presenilin [1]; HEK293 cells expressing Alcβ, FIG. 7B) was “detected even when the presenilin inhibitor was not added”. The “C-terminal fragment (CTF1) of Alcγ in the cell lysate” value (presenilin [1]; HEK293 cells expressing Alcγ, FIG. 7C) was “C-terminal fragments (CTF1) were detected only when the presenilin inhibitor was added” and the “fragments (such as Alcα-ICD) containing the C-terminal of each Alc” value (presenilin [2]) was “such fragments were not detected”.
